According to paper PMC8036666, “Biological and Physico-Chemical Characteristics of Arginine-Rich Peptide Gemini Surfactants with Lysine and Cystine Spacers” (International Journal of Molecular Sciences, 2021):
Values after ≈ are worked out from the molar mass of the structure shown. Like-named read-outs stand apart in the source and are kept apart here. Where a SMILES comes first, the peptide text is derived from it. Bridges are numbered along the chain shown (N, C = ends). Roman numbers before positions name the chains, in order. Side-chain parts run from the residue outwards. [ ]: non-standard residue; d: D form. The star is where a group is joined. Myristoyl = CCCCCCCCCCCCCC(=O)*; Nle = CCCC[C@H](N)C(=O)O; Octanoyl = CCCCCCCC(=O)*

Tests used:
HaCaT cells = type: cell-based, human; details: 24 h
Protocol: Cells were trypsinized, and the medium was renewed 2–3 times per week. The cytotoxicity of compounds was assessed by the determination of cell metabolic activity by colorimetric CellTilter 96® Aqueous One Solution Cell Proliferation Assay (Promega, Madison, WI, USA), according to the manufacturer’s instructions. […] Every compound was medium-soluble in 37 °C; thus, the control cells were cultured with the medium. Serial dilutions of the tested compounds were always prepared prior to use. Cells were incubated with drugs for 24 h, and then, 20 μL of the CellTiter 96®AqueousOne Solution Reagent was added to each well containing cells maintained in 100 μL of culture medium.

[1] = test system: Staphylococcus aureus ATCC 33591
Protocol: The Acinetobacter baumannii ATCC BAA-1605, Enterococcus faecium ATCC 700221, Escherichia coli ML-35 ATCC 43827, Klebsiella aerogenes ATCC 13048, Klebsiella pneumoniae ATCC 700603, Pseudomonas aeruginosa ATCC 9027, Staphylococcus aureus ATCC 25923, Staphylococcus aureus ATCC 33591, Candida albicans ATCC 10231, Candida glabrata ATCC 15126, strains were acquired from the American Type Culture Collection (ATCC). All the strains were stored at −80 °C in Roti-Store cryo vials and before the tests were transferred into fresh Mueller–Hinton broth (MHB, Biocorp, Warsaw, […], Steinheim, Germany) for fungi and incubated for 24 h at 37 °C. Then, the cultures were seeded on the Mueller–Hinton agar (BioMaxima, Lublin, Poland) or Sabouraud dextrose agar (SDA, BioMaxima, Lublin, Poland) plates, respectively, and incubated as just mentioned. These agar cultures were used for further microbiological assays. […]
The MICs were determined by the broth microdilution method according to the Clinical and Laboratory Standard Institute guidelines. […] The experiments were conducted on 96-well microtiter polystyrene plates (Kartell, Noviglio, Italy). The growth was assessed visually after incubation, and the MIC was assumed as the lowest peptide concentration at which a noticeable growth of microorganisms was inhibited. All experiments were conducted in triplicate.

C. albicans ATCC 10231 = test system: C. albicans ATCC 10231
Protocol: (§1) The Acinetobacter baumannii ATCC BAA-1605, Enterococcus faecium ATCC 700221, Escherichia coli ML-35 ATCC 43827, Klebsiella aerogenes ATCC 13048, Klebsiella pneumoniae ATCC 700603, Pseudomonas aeruginosa ATCC 9027, Staphylococcus aureus ATCC 25923, Staphylococcus aureus ATCC 33591, Candida albicans ATCC 10231, Candida glabrata ATCC 15126, strains were acquired from the American Type Culture Collection (ATCC). All the strains were stored at −80 °C in Roti-Store cryo vials and before the tests were transferred into fresh Mueller–Hinton broth (MHB, Biocorp, Warsaw, Poland) for bacteria or RPMI-1640 (Sigma-Aldrich, Steinheim, Germany) for fungi and incubated for 24 h at 37 °C. Then, the cultures were seeded on the Mueller–Hinton agar (BioMaxima, Lublin, Poland) or Sabouraud dextrose agar (SDA, BioMaxima, Lublin, Poland) plates, respectively, and incubated as just mentioned. These agar cultures were used for further microbiological assays. Cell densities for all assays were adjusted spectrophotometrically (Multiskan GO Microplate Spectrophotometer, Thermo Fisher Scientific, Vantaa, Finland) at 600 and 530 nm for bacteria and fungi, respectively.
(§2) The MICs were determined by the broth microdilution method according to the Clinical and Laboratory Standard Institute guidelines. For this purpose, initial inoculums of bacteria (5 × 10^5 CFU/mL) in MHB and yeasts (2 × 10^3 CFU/mL) in RPMI-1640 with 2% D-glucose were exposed to the ranging concentration of lipopeptides (0.5–256 μg/mL) and incubated at 37 °C for 18 h and 24 h, respectively. The experiments were conducted on 96-well microtiter polystyrene plates (Kartell, Noviglio, Italy). The growth was assessed visually after incubation, and the MIC was assumed as the lowest peptide concentration at which a noticeable growth of microorganisms was inhibited. All experiments were conducted in triplicate.

C. glabrata ATCC 15126 = test system: C. glabrata ATCC 15126
Protocol: as §1, §2

[2] = test system: Candida albicans ATCC 10231; type: cell-based; details: ATCC 10231, 24 h
[3] = test system: Enterococcus faecium ATCC 700221; type: cell-based; details: ATCC 700221, 24 h
Summary of the method: (§3)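 Biofilms grown 24 h at 37°C from 5.0 × 10^5 CFU/mL inocula in MHB, rinsed with PBS, then exposed to compounds at 1–512 μg/mL for 24 h at 37°C. Viability read by resazurin after 1 h (570/600 nm). MBEC is the lowest concentration giving ≤10 ± 0.5% reduction relative to controls; triplicates.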

[4] = test system: Klebsiella pneumoniae ATCC 700603; type: cell-based; details: ATCC 700603, 24 h
Summary of the method: as §3

[5] = test system: Pseudomonas aeruginosa ATCC 9027; type: cell-based; details: ATCC 9027, 24 h
Summary of the method: as §3

For `CCCCCCCC(=O)N[C@@H](CCCNC(=N)N)C(=O)N[C@@H](CCCNC(=N)N)C(N)=O` [Compound A1, C8-RR-NH2] (Octanoyl-Arg-Arg-NH2), the IC50 (HaCaT cells) was greater than 500 mg/L, the “MIC Staphylococcus aureus ATCC 33591” value ([1]; planktonic culture) was >256 (−/−) µg/mL and the “MIC C. albicans ATCC 10231” value (C. albicans ATCC 10231; planktonic culture) was >256 (−/−) µg/mL. The “MIC C. glabrata ATCC 15126” value (C. glabrata ATCC 15126; planktonic culture) was >256 (−/−) µg/mL, the “MBEC Candida albicans ATCC 10231” value [2] was greater than 512 µg/mL and the “MBEC Enterococcus faecium ATCC 700221” value [3] was greater than 512 µg/mL. The “MBEC Klebsiella pneumoniae ATCC 700603” value [4] was greater than 512 µg/mL and the “MBEC Pseudomonas aeruginosa ATCC 9027” value [5] was greater than 512 µg/mL.
`CCCCCCCC(=O)N[C@@H](CCCC)C(=O)N[C@@H](CCCNC(=N)N)C(=O)N[C@@H](CCCNC(=N)N)C(=O)NCCCC[C@H](NC(=O)[C@H](CCCNC(=N)N)NC(=O)[C@H](CCCNC(=N)N)NC(=O)[C@H](CCCC)NC(=O)CCCCCCC)C(N)=O` [Compound B6] (Octanoyl-[Nle]RRK([Arg-Arg-Nle-Octanoyl])-NH2) was tested, and the IC50 (HaCaT cells) was 164.17 ± 14.65 mg/L (≈ 131 µM), the “MIC Staphylococcus aureus ATCC 33591” value ([1]; ATCC 33591, 24 h) was 4 µg/mL (≈ 3.2 µM) and the “MIC C. albicans ATCC 10231” value (C. albicans ATCC 10231; ATCC 10231, 24 h) was 16 µg/mL (≈ 12.8 µM). The “MIC C. glabrata ATCC 15126” value (C. glabrata ATCC 15126; ATCC 15126, 24 h) was 16 µg/mL (≈ 12.8 µM), the “MBEC Candida albicans ATCC 10231” value [2] was 256 µg/mL and the “MBEC Enterococcus faecium ATCC 700221” value [3] was 8 µg/mL. The “MBEC Klebsiella pneumoniae ATCC 700603” value [4] was 256 µg/mL and the “MBEC Pseudomonas aeruginosa ATCC 9027” value [5] was 256 µg/mL.
With `CCCCCCCC(=O)N[C@@H](CCCNC(=N)N)C(=O)N[C@@H](CCCNC(=N)N)C(=O)NCCCC[C@H](NC(=O)[C@H](CCCNC(=N)N)NC(=O)[C@H](CCCNC(=N)N)NC(=O)CCCCCCC)C(N)=O` [Compound B1] (Octanoyl-Arg-Arg-Lys([Arg-Arg-Octanoyl])-NH2) the IC50 (HaCaT cells) was 378.40 ± 93.71 mg/L (≈ 370 µM), the “MIC Staphylococcus aureus ATCC 33591” value ([1]; ATCC 33591, 24 h) was 8 µg/mL (≈ 7.83 µM) and the “MIC C. albicans ATCC 10231” value (C. albicans ATCC 10231; ATCC 10231, 24 h) was 64 µg/mL (≈ 62.6 µM). The “MIC C. glabrata ATCC 15126” value (C. glabrata ATCC 15126; ATCC 15126, 24 h) was 64 µg/mL (≈ 62.6 µM), the “MBEC Candida albicans ATCC 10231” value [2] was 256 µg/mL and the “MBEC Enterococcus faecium ATCC 700221” value [3] was 128 µg/mL. For the same molecule, the “MBEC Klebsiella pneumoniae ATCC 700603” value [4] was greater than 512 µg/mL and the “MBEC Pseudomonas aeruginosa ATCC 9027” value [5] was 512 µg/mL.
In the case of `CCCCCCCCCCCCCC(=O)N[C@@H](CCCNC(=N)N)C(=O)N[C@@H](CCCNC(=N)N)C(=O)N[C@@H](CSSC[C@H](NC(=O)[C@H](CCCNC(=N)N)NC(=O)[C@H](CCCNC(=N)N)NC(=O)CCCCCCCCCCCCC)C(N)=O)C(N)=O` [Compound C4] (I: Myristoyl-Arg-Arg-Cys-NH2 / II: Myristoyl-Arg-Arg-Cys-NH2; disulfide I:3-II:3), the IC50 (HaCaT cells) is reported as 54.52 ± 15.40 mg/L (≈ 42.5 µM), the “MIC Staphylococcus aureus ATCC 33591” value ([1]; ATCC 33591, 24 h) is reported as 32 µg/mL (≈ 24.9 µM) and the “MIC C. albicans ATCC 10231” value (C. albicans ATCC 10231; ATCC 10231, 24 h) is reported as 2 µg/mL (≈ 1.56 µM). For the same molecule, the “MIC C. glabrata ATCC 15126” value (C. glabrata ATCC 15126; ATCC 15126, 24 h) was 1 µg/mL (≈ 0.779 µM), the “MBEC Candida albicans ATCC 10231” value [2] was 16 µg/mL and the “MBEC Enterococcus faecium ATCC 700221” value [3] was 64 µg/mL. For the same molecule, the “MBEC Klebsiella pneumoniae ATCC 700603” value [4] was 512 µg/mL and the “MBEC Pseudomonas aeruginosa ATCC 9027” value [5] was greater than 512 µg/mL.
